The source of these data is patent US10494363B2, “Non-steroidal glucocorticoid receptor modulators for local drug delivery” (LEO PHARMA A/S, priority 2015, dated 2019).

For series [1], the target named is T1, glucocorticoid receptor (GR), recombinant full-length receptor protein (Homo sapiens, UniProt P04150).
T1 construct: 4 nM recombinant, full-length receptor protein was incubated with increasing concentrations of GR ligand; purchased Life Technologies A-15897
T1 sequence (P04150 1-777): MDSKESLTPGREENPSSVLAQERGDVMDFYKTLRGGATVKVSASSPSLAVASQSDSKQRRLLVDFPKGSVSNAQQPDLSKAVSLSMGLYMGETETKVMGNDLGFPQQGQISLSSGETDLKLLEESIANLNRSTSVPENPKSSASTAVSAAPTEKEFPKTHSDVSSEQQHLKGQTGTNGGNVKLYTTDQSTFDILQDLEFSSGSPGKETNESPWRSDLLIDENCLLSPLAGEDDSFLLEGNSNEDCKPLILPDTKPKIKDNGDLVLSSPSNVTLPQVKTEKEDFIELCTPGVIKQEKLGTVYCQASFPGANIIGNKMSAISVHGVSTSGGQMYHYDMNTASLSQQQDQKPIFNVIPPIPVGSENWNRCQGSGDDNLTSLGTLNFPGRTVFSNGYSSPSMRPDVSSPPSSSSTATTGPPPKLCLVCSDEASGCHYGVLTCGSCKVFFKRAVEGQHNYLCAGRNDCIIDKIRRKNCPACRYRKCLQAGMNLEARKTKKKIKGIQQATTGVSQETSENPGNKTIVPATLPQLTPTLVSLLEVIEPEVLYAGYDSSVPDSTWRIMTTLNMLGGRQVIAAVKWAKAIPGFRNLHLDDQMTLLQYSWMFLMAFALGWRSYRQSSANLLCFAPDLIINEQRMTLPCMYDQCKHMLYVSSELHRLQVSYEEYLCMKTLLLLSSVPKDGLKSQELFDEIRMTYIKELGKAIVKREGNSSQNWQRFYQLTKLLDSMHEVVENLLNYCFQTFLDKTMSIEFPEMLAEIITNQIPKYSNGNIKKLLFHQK
The series is described as follows: Glucocorticoid receptor binding assay (fluorescence polarization kit). As to conditions: 4 nM receptor, 2.5 nM Fluormone GS1 tracer, 2h room temperature, read-out: GR binding ABS IC50. On the procedure:
Test compounds were diluted in DMSO over seven orders of magnitude, further diluted in assay buffer and distributed into 384-well plates. The sensitivity limit of this assay was 2-4 nM.
Data were processed by sigmoidal curve fitting.
Absolute (Abs) IC50 and Emax were determined from the curve fits.
On the technique in general: Fluorescence polarisation rises when a labelled molecule tumbles more slowly, as on binding a larger partner.

In series [2] the test system is TNF alpha release from human PBMCs. The series is described as follows: Inhibition of TNF alpha release from human PBMCs. The class given is cell-based. As to conditions: PBMC, LPS 1 μg/ml, 18 hours, AlphaLISA. In a few lines: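 Fresh or thawed PBMCs in serum-free medium with 0.5% HSA, stimulated with 1 μg/ml LPS plus titrated compound for 18 h at 37° C. TNF-a in supernatant by AlphaLISA; window set with a reference PDE4 inhibitor at 100×IC50. EC50 and Emax from sigmoidal fits.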
Background: Bead proximity is the source of the signal in Alpha formats.

The nature of series [3]: Human liver microsomes (HLM) assay. It counts as in vitro ADME. As to conditions: hepatic extraction ratio; 0.5 μM compound, 0.5 mg/mL microsomes, NADPH, 37° C. On the procedure:
Incubations of test compounds in DMSO, diluted with phosphate buffer, pH 7.4, at 0.5 μM were carried out with human liver microsomes (0.5 mg/mL). The percentage of organic solvent in the incubations was 1%. The human liver microsomal suspension in phosphate buffer was mixed with NADPH (1 mM) and preheated to 37° C. before test compound was added. Aliquots were taken at 0, 5, 10, 20 and 30 minutes, and reactions were terminated by addition of methanol containing analytical internal standard (IS).
The results were expressed as apparent clearance (Clapp) (mL/min/kg) and hepatic extraction ratio (Eh) (%) calculated from the rate constant (k) (min^−1) of test compound depletion.

A value given as a limit tells only on which side of the number the result lay.

As a reminder, the IC50 is the point on the concentration scale where inhibition reaches its midpoint. Broadly, the EC50 is the concentration that produces a half-maximal response. A low value points to greater potency. `C[C@H](NC(=O)[C@@H]1CCCO1)[C@H](Oc1ccc(C(=O)N[C@H]2CCCN(C(=O)[C@H]3COC(=O)C3)C2)nc1)c1ccc(C2CC2)cc1` [Compound 20, 5-[(1R,2S)-1-(4-cyclopropylphenyl)-2-[[(2S)-tetrahydrofuran-2-carbonyl]amino]propoxy]-N-[(3S)-1-[(3R)-5-oxotetrahydrofuran-3-carbonyl]-3-piperidyl]pyridine-2-carboxamide]: the IC50 in series [1] lay in the range of 100 to 300 nM. The EC50 in series [2] was below 100 nM. Also, the “HLM assay Eh (%)” value in series [3] is “* (extraction ratio (Eh)>90%)”.
Take `C[C@H](NC(=O)[C@H]1CCCO1)[C@H](Oc1ccc(C(=O)N[C@H]2CCCN(C(=O)[C@H]3COC(=O)C3)C2)nc1)c1ccc(C2CC2)cc1` [Compound 22, 5-[(1R,2S)-1-(4-cyclopropylphenyl)-2-[[(2R)-tetrahydrofuran-2-carbonyl]amino]propoxy]-N-[(3S)-1-[(3R)-5-oxotetrahydrofuran-3-carbonyl]-3-piperidyl]pyridine-2-carboxamide]: the IC50 in series [1] is below 100 nM. The molecule also came in with an EC50 in series [2] below 100 nM. For the same molecule, the “HLM assay Eh (%)” value in series [3] is on record as “* (extraction ratio (Eh)>90%)”.
Regarding `C[C@H](NC(=O)c1ccon1)[C@H](Oc1ccc(C(=O)N[C@H]2CCCN(C(=O)[C@H]3COC(=O)C3)C2)nc1)c1ccc(C2CC2)cc1` [Compound 23, N-[(1S,2R)-2-(4-cyclopropylphenyl)-1-methyl-2-[[6-[[(3S)-1-[(3R)-5-oxotetrahydrofuran-3-carbonyl]-3-piperidyl]carbamoyl]-3-pyridyl]oxy]ethyl]isoxazole-3-carboxamide], the IC50 in series [1] was below 100 nM. This molecule came in with an EC50 in series [2] below 100 nM. Also, the “HLM assay Eh (%)” value in series [3] was “* (extraction ratio (Eh)>90%)”.
For the molecule `C[C@H](NC(=O)C(F)(F)F)[C@H](Oc1ccc(C(=O)O[C@H]2CCCN(C(=O)[C@H]3COC(=O)C3)C2)cc1)c1ccc(C2CC2)cc1` [Compound 24, [(3S)-1-[(3R)-5-oxotetrahydrofuran-3-carbonyl]-3-piperidyl] 4-[(1R,2S)-1-(4-cyclopropylphenyl)-2-[(2,2,2-trifluoroacetyl)amino]propoxy]benzoate], the IC50 in series [1] was below 100 nM. The EC50 in series [2] was below 100 nM. The “HLM assay Eh (%)” value in series [3] is listed as “* (extraction ratio (Eh)>90%)”.
Take `C[C@H](NC(=O)c1cnsn1)[C@H](Oc1ccc(C(=O)O[C@H]2CCCN(C(=O)[C@H]3COC(=O)C3)C2)cc1)c1ccc(C2CC2)cc1` [Compound 25, [(3S)-1-[(3R)-5-oxotetrahydrofuran-3-carbonyl]-3-piperidyl] 4-[(1R,2S)-1-(4-cyclopropylphenyl)-2-(1,2,5-thiadiazole-3-carbonylamino)propoxy]benzoate]: the IC50 in series [1] was below 100 nM. The EC50 in series [2] is below 100 nM. Moreover, the “HLM assay Eh (%)” value in series [3] is “* (extraction ratio (Eh)>90%)”.
`Cc1cnc(C(=O)N[C@@H](C)[C@H](Oc2ccc(C(=O)O[C@H]3CCCN(C(=O)[C@H]4COC(=O)C4)C3)cc2)c2ccc(C3CC3)cc2)s1` [Compound 26, [(3S)-1-[(3R)-5-oxotetrahydrofuran-3-carbonyl]-3-piperidyl] 4-[(1R,2S)-1-(4-cyclopropylphenyl)-2-[(5-methylthiazole-2-carbonyl)amino]propoxy]benzoate]: the IC50 in series [1] was below 100 nM. This molecule gave an EC50 in series [2] below 100 nM. Besides, the “HLM assay Eh (%)” value in series [3] is “* (extraction ratio (Eh)>90%)”.
As for `Cc1nonc1C(=O)N[C@@H](C)[C@H](Oc1ccc(C(=O)O[C@H]2CCCN(C(=O)[C@H]3COC(=O)C3)C2)cc1)c1ccc(C2CC2)cc1` [Compound 28, [(3S)-1-[(3R)-5-oxotetrahydrofuran-3-carbonyl]-3-piperidyl] 4-[(1R,2S)-1-(4-cyclopropylphenyl)-2-[(4-methyl-1,2,5-oxadiazole-3-carbonyl)amino]propoxy]benzoate], the 50% inhibitory concentration (IC50) in series [1] is below 100 nM. In series [2], the EC50 was below 100 nM. Also, the “HLM assay Eh (%)” value in series [3] is recorded as “* (extraction ratio (Eh)>90%)”.
For the molecule `Cc1scnc1C(=O)N[C@@H](C)[C@H](Oc1ccc(C(=O)O[C@H]2CCCN(C(=O)[C@H]3COC(=O)C3)C2)cc1)c1ccc(C2CC2)cc1` [Compound 29, [(3S)-1-[(3R)-5-oxotetrahydrofuran-3-carbonyl]-3-piperidyl] 4-[(1R,2S)-1-(4-cyclopropylphenyl)-2-[(5-methylthiazole-4-carbonyl)amino]propoxy]benzoate], the IC50 in series [1] was below 100 nM. In series [2], this molecule gave an EC50 below 100 nM. Besides, the “HLM assay Eh (%)” value in series [3] is on record as “* (extraction ratio (Eh)>90%)”.
Turning to `Cc1ncsc1C(=O)N[C@@H](C)[C@H](Oc1ccc(C(=O)O[C@H]2CCCN(C(=O)[C@H]3COC(=O)C3)C2)cc1)c1ccc(C2CC2)cc1` [Compound 30, [(3S)-1-[(3R)-5-oxotetrahydrofuran-3-carbonyl]-3-piperidyl] 4-[(1R,2S)-1-(4-cyclopropylphenyl)-2-[(4-methylthiazole-5-carbonyl)amino]propoxy]benzoate], the IC50 in series [1] was below 100 nM. In series [2], this molecule yielded an EC50 of 100 to 300 nM. Moreover, the “HLM assay Eh (%)” value in series [3] is recorded as “* (extraction ratio (Eh)>90%)”.
As for `Cc1nnc(C(=O)N[C@@H](C)[C@H](Oc2ccc(C(=O)O[C@H]3CCCN(C(=O)[C@H]4COC(=O)C4)C3)cc2)c2ccc(C3CC3)cc2)o1` [Compound 31, [(3S)-1-[(3R)-5-oxotetrahydrofuran-3-carbonyl]-3-piperidyl] 4-[(1R,2S)-1-(4-cyclopropylphenyl)-2-[(5-methyl-1,3,4-oxadiazole-2-carbonyl)amino]propoxy]benzoate], the IC50 in series [1] was below 100 nM. Moreover, in series [2], the EC50 is below 100 nM. In series [3], the “HLM assay Eh (%)” value is given as “* (extraction ratio (Eh)>90%)”.
Regarding `Cc1nnsc1C(=O)N[C@@H](C)[C@H](Oc1ccc(C(=O)O[C@H]2CCCN(C(=O)[C@H]3COC(=O)C3)C2)cc1)c1ccc(C2CC2)cc1` [Compound 32, [(3S)-1-[(3R)-5-oxotetrahydrofuran-3-carbonyl]-3-piperidyl] 4-[(1R,2S)-1-(4-cyclopropylphenyl)-2-[(4-methylthiadiazole-5-carbonyl)amino]propoxy]benzoate], in series [1], the IC50 is below 100 nM. In addition, the EC50 in series [2] was below 100 nM. In addition, the “HLM assay Eh (%)” value in series [3] is given as “* (extraction ratio (Eh)>90%)”.
Regarding `Cc1ncoc1C(=O)N[C@@H](C)[C@H](Oc1ccc(C(=O)O[C@H]2CCCN(C(=O)[C@H]3COC(=O)C3)C2)cc1)c1ccc(C2CC2)cc1` [Compound 33, [(3S)-1-[(3R)-5-oxotetrahydrofuran-3-carbonyl]-3-piperidyl] 4-[(1R,2S)-1-(4-cyclopropylphenyl)-2-[(4-methyloxazole-5-carbonyl)amino]propoxy]benzoate], the 50% inhibitory concentration (IC50) in series [1] was below 100 nM. This molecule registered an EC50 in series [2] of 100 to 300 nM. Moreover, the “HLM assay Eh (%)” value in series [3] was “* (extraction ratio (Eh)>90%)”.
Turning to `COCC(=O)N[C@@H](C)[C@H](Oc1ccc(C(=O)O[C@H]2CCCN(C(=O)[C@H]3COC(=O)C3)C2)cc1)c1ccc(C2CC2)cc1` [Compound 34, [(3S)-1-[(3R)-5-oxotetrahydrofuran-3-carbonyl]-3-piperidyl] 4-[(1R,2S)-1-(4-cyclopropylphenyl)-2-[(2-methoxyacetyl)amino]propoxy]benzoate], in series [1], the IC50 was below 100 nM. Further, the EC50 in series [2] is below 100 nM. Further, in series [3], the “HLM assay Eh (%)” value is listed as “* (extraction ratio (Eh)>90%)”.
As to `C[C@H](NC(=O)c1ccnn1C)[C@H](Oc1ccc(C(=O)O[C@H]2CCCN(C(=O)[C@H]3COC(=O)C3)C2)cc1)c1ccc(C2CC2)cc1` [Compound 35, [(3S)-1-[(3R)-5-oxotetrahydrofuran-3-carbonyl]-3-piperidyl] 4-[(1R,2S)-1-(4-cyclopropylphenyl)-2-[(2-methylpyrazole-3-carbonyl)amino]propoxy]benzoate], the IC50 in series [1] was below 100 nM. The molecule further had an EC50 in series [2] of 100 to 300 nM. Further, the “HLM assay Eh (%)” value in series [3] was “* (extraction ratio (Eh)>90%)”.
